Experimental data published in PubChem BioAssay (NCI).
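Five concentrations, 48 hours, 96-well plates. Abbreviation: GI50, concentration required for 50% inhibition of growth. TGI marks complete inhibition of growth.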

Key:
Test in all cases: inhibition of tumour cell growth, NCI panel, 48 h
MCF7 breast = tested on: MCF7 breast
CCRF-CEM leukemia = tested on: CCRF-CEM leukemia
RXF 393 renal = tested on: RXF 393 renal
NCI-H460 lung = tested on: NCI-H460 lung
SK-MEL-2 melanoma = tested on: SK-MEL-2 melanoma
M14 melanoma = tested on: M14 melanoma
MALME-3M melanoma = tested on: MALME-3M melanoma
T-47D breast = tested on: T-47D breast
UACC-62 melanoma = tested on: UACC-62 melanoma
TK-10 renal = tested on: TK-10 renal

| Structure (SMILES) | GI50 (MCF7 breast) [µM] | TGI (MCF7 breast) [µM] | GI50 (CCRF-CEM leukemia) [µM] | TGI (CCRF-CEM leukemia) [µM] | GI50 (RXF 393 renal) [µM] | TGI (RXF 393 renal) [µM] | GI50 (NCI-H460 lung) [µM] | TGI (NCI-H460 lung) [µM] | GI50 (SK-MEL-2 melanoma) [µM] | TGI (SK-MEL-2 melanoma) [µM] | GI50 (M14 melanoma) [µM] | TGI (M14 melanoma) [µM] | GI50 (MALME-3M melanoma) [µM] | TGI (MALME-3M melanoma) [µM] | GI50 (T-47D breast) [µM] | TGI (T-47D breast) [µM] | GI50 (UACC-62 melanoma) [µM] | TGI (UACC-62 melanoma) [µM] | GI50 (TK-10 renal) [µM] | TGI (TK-10 renal) [µM] |
| --- | --- | --- | --- | --- | --- | --- | --- | --- | --- | --- | --- | --- | --- | --- | --- | --- | --- | --- | --- | --- |
| Oc1c(Cl)cc(Cl)c2ccc(Cn3cc(-c4cc(C(F)(F)F)cc(C(F)(F)F)c4)nn3)nc12 | 0.526 | 2.1 | 0.305 | 5.49 | 0.555 | 1.97 | 18.2 | 35.2 | 2.71 | 9.56 | 1.61 | 3.45 | 1.47 | 3.21 | 1.67 | 5.55 | 2.15 | 6.65 | 1.82 | 3.83 |
| CN1CCN(Cc2ccc(NC(=O)c3cncc(C#Cc4cnc(N)cc4C#N)c3)cc2C(F)(F)F)CC1 | 3.64 | 16.2 | 3.4 | 42.7 | 1.45 | 5.55 | 2.66 | 12.7 | 1.15 | 3.44 | 0.623 | 3.86 | 0.264 | 0.943 | 4.42 | 21.1 | 0.877 | 3.92 | 4.92 | 17.5 |
| Cc1ccc2nc(-c3ccc(OCC(=O)N=Nc4c(O)[nH]c5ccccc45)cc3)[nH]c2c1 | 1.85 | 3.96 | 1.93 | 11.3 | 7.94 | 24.4 | 2.01 | 4.06 | 3.71 | 14.7 | 5.43 | > 100 | 2.1 | 4.6 | 2.02 | 4.88 | 4.38 | 16.8 | 12.8 | 30.8 |
| O=[N+]([O-])c1cccc(-c2nc(-c3ccccc3)c(-c3ccccc3)[nH]2)c1 |  | > 100 |  | > 100 |  | > 100 |  | > 100 |  | > 100 |  | > 100 |  | > 100 |  | > 100 |  | > 100 |  | > 100 |
| CCN1CCN(c2cc(C)nc(N(CCCNc3ccnc4cc(Cl)ccc34)Cc3ccc4c(c3)OCO4)n2)CC1 | 2.88 | 21.5 | 2.38 | 7.43 | 1.52 | 3.38 | 3.07 | 11.2 | 2.14 | 4.74 | 1.89 | 3.5 | 1.87 | 3.5 | 2.26 | 4.88 | 1.85 | 3.51 | 1.84 | 3.87 |
| CCCn1cnc2c(SCC(=O)O)nc(N)nc21 |  | > 100 |  | > 100 |  | > 100 |  | > 100 |  | > 100 |  | > 100 |  | > 100 |  | > 100 |  | > 100 |  | > 100 |
| CNNC(=N\S(=O)(=O)c1cc(C)c(Cl)cc1SCc1ccccc1)/N=C/c1ccc([N+](=O)[O-])s1 | 97.9 | > 100 | > 100 | > 100 | > 100 | > 100 | > 64.1 | > 100 | > 100 | > 100 | 9.97 | > 78.5 | 1.18 | > 64.2 | > 100 | > 100 | 47.9 | > 100 | > 74.9 | > 100 |
| C=C1C(=O)O[C@H]2[C@H]1CC/C(COC(=O)NCc1ccc(OC)cc1)=C\CC[C@@]1(C)O[C@@H]21 | 1.31 | 5.45 | 0.378 | 2.1 | 0.509 | 1.07 | 3.16 | 18.2 | 3.04 | 10.4 | 0.52 | 1.14 | 0.554 | 1.29 | 0.757 | 2.91 | 1.59 | 3.16 | 0.359 | 1.51 |
| COC(=O)C(CCC(=O)CCl)N1C(=O)c2ccccc2C1=O (stereo not given) |  | 18.5 |  | 6.34 |  | 6.45 |  | 29.5 |  | 21.9 |  | 14.8 |  | 11.9 |  | 26.8 |  | 26 |  | 21.5 |
| CN(C)c1ccc(/C=C2\N=C(c3ccccc3)N(c3cc(C(F)(F)F)ccc3Cl)C2=O)cc1 | 99.8 | > 100 | > 100 | > 100 | > 100 | > 100 | > 100 | > 100 | > 100 | > 100 | > 100 | > 100 | > 100 | > 100 | > 100 | > 100 | > 100 | > 100 | > 100 | > 100 |
| O=C(Nc1ccc(F)cc1F)c1cc(Cl)ccc1O | 2.05 | > 100 | 3.04 | 18.1 | 1.37 | 5.1 | 1.42 | 19.2 | 1.16 | 4.93 | 0.446 | 4.18 | 0.782 | 4.76 | 0.473 | 5.5 | 0.489 | 3.03 | 5.53 | 31.8 |
| CCOc1ccc2c(c1)C(=O)c1c-2n(CCCBr)c(=O)c2cc([N+](=O)[O-])ccc12 | 0.344 | 63.8 | 3.74 | > 100 | 37.9 | > 100 | 1.97 | 91.6 | > 100 | > 100 | 6.58 | > 100 | 40.7 | > 100 | 0.55 | 9.12 | 5.73 | > 100 | > 100 | > 100 |
